According to publication doi:10.1101/2024.06.26.600887v2 (biorxiv, 2024):

How the values were obtained:
[1] = target: T1, His-HAO1 (recombinant glycolate oxidase, 2-hydroxyacid oxidase) (Homo sapiens, UniProt Q9UJM8); assay: DSF thermal stabilisation, SYPRO Orange; type: binding
T1 sequence (Q9UJM8 1-370): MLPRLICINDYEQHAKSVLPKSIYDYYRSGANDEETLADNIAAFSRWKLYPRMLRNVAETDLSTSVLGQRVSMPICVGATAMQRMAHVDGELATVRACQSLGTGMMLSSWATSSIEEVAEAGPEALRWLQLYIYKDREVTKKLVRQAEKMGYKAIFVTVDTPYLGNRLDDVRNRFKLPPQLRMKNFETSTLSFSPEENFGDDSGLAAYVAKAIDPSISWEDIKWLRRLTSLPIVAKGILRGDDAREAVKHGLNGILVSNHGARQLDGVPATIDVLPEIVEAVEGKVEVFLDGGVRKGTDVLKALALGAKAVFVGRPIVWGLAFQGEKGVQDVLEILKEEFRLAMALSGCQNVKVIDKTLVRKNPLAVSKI

[2] = target: T1, His-HAO1 (recombinant glycolate oxidase, 2-hydroxyacid oxidase); assay: SPR; type: binding
[3] = target: T1, His-HAO1 (recombinant glycolate oxidase, 2-hydroxyacid oxidase); assay: Amplex Red activity assay; type: biochemical
HAO1-HiBiT = target: T2, HAO1-HiBiT (Homo sapiens, UniProt Q9UJM8); assay: SplitLuc CETSA in HEK293T lysate, LgBiT luminescence; type: biochemical
T2 sequence (Q9UJM8 1-370): T1 sequence (Q9UJM8 1-370)

| EC50 [1] [nM] | Kd [2] [nM] | IC50 [3] [nM] | EC50 (HAO1-HiBiT) [nM] | Compound |
| --- | --- | --- | --- | --- |
| 5010 | 3.9 | 25.1 | 2200 | NS(=O)(=O)c1ccc(Cc2c(-c3ccc(F)c(-c4ccc(Oc5nn[nH]c5C(=O)O)cc4)c3)nn(-c3nc(C(=O)O)cs3)c2CC2CC2)cc1F [compound 1, Compound 1] |
| 3980 | 4.4 | 20 | 1800 | O=C(O)c1nn[nH]c1Oc1ccc(-c2ccc(C3CC(F)(F)C3)cc2)cc1 [compound 2, Compound 2] |
